According to US6541483B2, “Acridone-derived compounds useful as antineoplastic and antiretroviral agents” (The United States of America as represented by the …, priority 1996, dated 2003):
Like-named read-outs stand apart in the source and are kept apart here.

Columns and labels:
CEM-SS cells [1] = experiment: 3H precursor incorporation in CEM-SS cells; type: cell-based
HIV-1ADA = experiment: anti-HIV-1 activity in monocyte/macrophage cultures; type: cell-based; conditions: Human immunodeficiency virus 1; HIV-1ADA, human monocyte/macrophage cultures; read-out: Mo/Mφ EC50
Description: (§1) The antiviral properties of the WMC series of compounds were evaluated. First, all compounds were tested for their ability to inhibit HIV-1 replication in cell culture using the XTT cytoprotection assay. This assay measures the concentration-dependent capacity of compounds to protect CEM-SS cells from the cytopathic effects of HIV-1. […] Thus, temacrazine was the most efficacious compound in the XTT cytoprotection assay. This conclusion was also reached when the compounds were tested for anti-HIV-1 activity against HIV-1ADA in human monocyte/macrophage cultures (Table 1).

[2] = target: p7 nucleocapsid protein zinc fingers (Human immunodeficiency virus type 1 group M subtype B, UniProt P04591); experiment: p7NC zinc finger fluorescence assays (TSQ, Trp37); type: biochemical, HIV-1
Excerpt: Based on the findings thus far our efforts have focused on biological assays of the temacrazine congener.

HIV-1 in ACH-2 cells = experiment: TNFα stimulated latently infected ACH-2 cells, virus production; type: cell-based; conditions: Human immunodeficiency virus 1, 72 h, read-out: EC50, inhibition of HIV-1 virus replication (virion-associated p24)
Description: In a similar study, cells were either treated for 24h with TNFα followed by the addition of temacrazine, or temacrazine and TNFα were added simultaneously, or temacrazine was added 24 h […] TNFα addition. After TNFα induction and temacrazine treatment, cultures were continued for 72 h after which virion-associated p24 and cell viability (XTT dye reduction) were measured.

CEM-SS cells [3] = experiment: XTT assay toxicity in CEM-SS cells (IC50); type: cell-based; conditions: for IC50: Homo sapiens, CEM-SS cells
Excerpt: Briefly, the infected cells in culture are killed by the virus, and the cytotoxicity is detected by the formation of color due to the […] of a formazan dye (XTT) by enzymes released by the dying cells (Weislow et al., J. Natl. Cancer Inst. 81:577-586, 1989). An effective antiviral drug is able to protect the infected cells from cytotoxicity by inhibiting some vital function of the virus. […] FIGS. 4 and 5 show the cytoprotective activity of WMC26 and WMC42. Since many drugs can also be toxic to cells in their own right, a parallel experiment is carried out wherein uninfected cells are treated with the drugs until a concentration is reached where the cells are killed by the action of the drug.
As a result of these preliminary data, additional experiments were carried out to establish the antiviral activity in other cell lines, using a variety of protocols. The preliminary experiments in lymphocytes were confirmed using infected macrophages. Much more extensive experiments were carried out in HIV-1-infected CEM SS leukemia cells. […] However, two derivatives were found which had low antileukemic activity while maintaining high antiviral activity. […] This gives a therapeutic index of more than 3 orders of magnitude. The corresponding therapeutic index for WMC50 is about 100-200, which is quite acceptable. Additional experiments were carried out on WMC-70. […] Further, WMC-70 appears to affect post-transcription events in the virus. […] While the inhibition of integration appears to be the principal mechanism by which this compound exerts its antiviral activity, there are perhaps other mechanisms which are also involved in the therapeutic action of this drug, and by extension, of other antiviral drugs of this class.
as §1

[4] = test system: human monocyte/macrophage cultures; experiment: toxicity in monocyte/macrophage cultures; type: cell-based; conditions: human monocyte/macrophage cultures; read-out: Mo/Mφ IC50
Description: as §1

HIV-1 protease = HIV-1 protease (Human immunodeficiency virus type 1 group M subtype B, UniProt P04585); experiment: protease activity, HPLC-based assay; type: biochemical
HIV-1 mRNA = experiment: RT-PCR of HIV-1 mRNA expression and splicing after TNFα induction; type: cell-based
Description: Similar results were seen when temacrazine and TNFα were added simultaneously.
As a control the house keeping gene porphobilinogen deaminase (Hydroxymethylbilane synthase, “PBGD”) was amplified to determine uniformity of loading.

[5] = test system: HIV-1 LTR-directed chloramphenicol acetyltransferase (CAT) activity; experiment: LTR-directed CAT activity in BF-24 cells; type: cell-based; conditions: 24 h, temacrazine up to 5 μM
Excerpt: Initiation and regulation of HIV-1 transcription requires a complex series of interactions with cellular transcription factors, such as NFkB, SP-1 and AP-1, and the participation of cellular factors in the transcriptional complex. In addition, the post-integrative model used here requires TNFα stimulated U1 and ACH-2 cells, this model requires not only the participation of the NFkB transcriptional complex, and also components of the TNFα signaling pathway. In order to rule out that temacrazine was non-specifically effecting transcription or down-regulating replication by interfering with the TNFα signal pathway, LTR-directed chloramphenicol acetyltransferase (CAT) activity was measured in BF-24 cells. BF-24 cells are derived from the THP-1 monocytic cell line and carry a stably integrated CAT gene under the transcriptional control of the HIV-1 LTR (S. Schwartz, et al., Proc. Natl. Acad. Sci. USA 86:7200 (1989); B. K. Felber, et al., Science 239:184 (1988)). The LTR in this monocytic cell line is inducible by IL-6, PMA and TNFα, and produces enzymatically active chloramphenicol transferase (“CAT”). […]
CAT activity was determined using a fluorescent Bodipy conjugated chloramphenicol after 18 h of reaction with 50 μg of protein extract containing Acetyl CoA.

SMILES: O=c1c2ccccc2n2nnc3ccc(NCCCN4CCN(CCCNc5ccc6nnn7c8ccccc8c(=O)c5c67)CC4)c1c32 [temacrazine]
- incorporation of 3H Leucine (protein metabolism) (CEM-SS cells [1]): no effect
- incorporation of 3H Thymidine (DNA replication) (CEM-SS cells [1]): no effect
- incorporation of 3H Uridine (RNA production) (CEM-SS cells [1]; CEM-SS cells): no effect
- EC50 (HIV-1ADA): 10 nM
- damage of the gag protein zinc finger [2]: did not damage
- EC50 (HIV-1 in ACH-2 cells): 10 to 100 nM
- concentration at which the drug kills 50% of the cells (CEM-SS cells [3]; CEM SS cells): greater than micromolar concentrations
- IC50 (CEM-SS cells [3]; Table 1, read-out: XTT Assay IC50): 2770 nM
- IC50 (CEM-SS cells [3]; read-out: IC50 toxicity value, XTT assay): 2770 nM
- IC50 [4]: 10000 nM
- inhibition of HIV protease (HIV-1 protease): did not inhibit
- PBGD (house keeping gene) expression (HIV-1 mRNA): did not decrease
- expression of unspliced or singly spliced mRNA (HIV-1 mRNA; 500 and 50 nM, prior to or 24 h after TNFα induction): completely inhibited
- expression of HIV-1 multispliced transcripts (HIV-1 mRNA; RT-PCR, rev independent mRNAs): did not alter
- CAT induction by TNFα [5]: did not significantly alter CAT induction
